The values that follow come from patent US6387278B1, “Increasing subterranean mobilization of organic contaminants and petroleum by aqueous thermal oxidation” (The Regents of the University of California, priority 2000, dated 2002).

Bounds are passed on as bounds.

Series [1] can be described thus: hydrous pyrolysis/oxidation of TCE dissolved in water with dissolved oxygen. In kind it is physicochemical. The note with it: temperatures above 90° C. From the text: (§1) The static autoclave experiments are run in Dickson-type, gold-bag rocking autoclaves. The autoclave reaction vessel uses a flexible gold bag sealed with a passivated titanium head and is contained within a large steel pressure vessel. The autoclave design allows periodic sampling of the reaction cell under in situ conditions throughout the course of an experiment without disturbing the temperature and pressure of the run. During the experiment the solution contacts only gold and passivated titanium so that unwanted surface catalytic effects are eliminated. Various combinations of solid, liquid or gaseous catalysts or oxidants are introduced into the reactor in order to study their effects on reaction mechanisms and rates. The sampled fluids and gases are analyzed using a variety of analytical techniques including ICP-ES, IC, GC (using purge and trap), gas MS, GC/MS, and HPLC.
All experiments are conducted in non-reactive flexible gold bag hydrothermal systems, so that complications due to experimental artifacts from catalysis by the equipment itself are avoided, and both temperature and pressure can be precisely controlled. Many samples can be taken and tested as the reaction proceeds without affecting the conditions of the reaction itself. […]

A short description of series [2]: solubility of TCE in water as a function of temperature (Dickson-type autoclave). In kind it is physicochemical. The following applies: at 298 K; calculated from solubility measured from 298 to 398 K at constant pressure.
From the text: as §1
A Dickson-type autoclave, as described above, equipped with a precision high pressure liquid chromatography pump to control pressure was used to measure the solubility of TCE in water as a function of temperature from 298 to 398 K at constant pressure. Obtained results were used to calculate the partial molal thermodynamic quantities for the dissolution reaction of TCE in water at 298 K: ΔGsoln=11.1 (±0.71) KJ/mol, ΔHsoln=3.075 (±0.525) KJ/mol and ΔSsoln=−28.29 (±1.61) J/mol-K.

Turning to `ClC=C(Cl)Cl` [TCE, trichloroethylene], in series [1] (initial runs with high starting concentrations (up to ≧600 ppm)), the “decrease of concentration by hydrous pyrolysis/oxidation” value is on record as ≤ 10,000 fold. In series [1] (initial runs with high starting concentrations), the “concentration eventually reached (drinking water MCL)” value is 5 ppb. In addition, in series [2], the “ΔGsoln, partial molal quantity for the dissolution reaction in water” value was 11.1 (±0.71) KJ/mol; the “ΔHsoln, partial molal quantity for the dissolution reaction in water” value is given as 3.075 (±0.525) KJ/mol; the “ΔSsoln, partial molal quantity for the dissolution reaction in water” value is reported as −28.29 (±1.61) J/mol-K.
